Measurements as given in PubChem BioAssay AID248 (DTP/NCI, 2004).
Several values for one entry are separate records, joined by “and”; a condition that tells them apart may be missing. Equal values may be shown once. Toxic doses and inconclusive results are not listed. Cut-off read from the data, not from the text of the source: active = T/C of 150% or more; inactive = T/C below 125%.

Test system: L1210 leukemia ip in BDF1 mice, survival T/C
Experiment: NCI In Vivo Anticancer Drug Screen. Data for tumor model L1210 Leukemia (intraperitoneal) in B6D2F1 (BDF1) mice
Conditions: endpoint: mean survival time, higher = longer survival
In short: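 Tumor was transplanted into mice, which were then dosed with test compound or vehicle alone. Survival was recorded for each group, and the treated figure was expressed relative to the control figure.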

[1] = dose: 100.0 mg/kg/injection, schedule: Q01DX009 (ip), vehicle: saline
[2] = dose: 100.0 mg/kg/injection, schedule: Q04DX003 (ip), vehicle: saline
[3] = dose: 50.0 mg/kg/injection, schedule: Q01DX001 (ip), vehicle: saline
[4] = dose: 100.0 mg/kg/injection, schedule: Q01DX001 (ip), vehicle: saline
[5] = dose: 200.0 mg/kg/injection, schedule: Q01DX001 (ip), vehicle: saline
[6] = dose: 200.0 mg/kg/injection, schedule: Q04DX002 (ip), vehicle: Klucel (hydroxypropylcellulose) (HPC)
[7] = dose: 400.0 mg/kg/injection, schedule: Q04DX002 (ip), vehicle: Klucel (hydroxypropylcellulose) (HPC)
[8] = dose: 100.0 mg/kg/injection, schedule: Q04DX003 (ip), vehicle: saline with Tween-80
[9] = dose: 200.0 mg/kg/injection, schedule: Q04DX003 (ip), vehicle: saline with Tween-80

Measured: T/C

O=S(=O)(O)c1cccc2cccc(Cl)c12
inactive: dose: 100.0 mg/kg/injection, schedule: Q01DX009 (ip), vehicle: saline with Tween-80 99 % of control | [1] 95 % of control | [2] 109 % of control | dose: 200.0 mg/kg/injection, schedule: Q01DX009 (ip), vehicle: saline with Tween-80 94 % of control | dose: 200.0 mg/kg/injection, schedule: Q01DX009 (ip), vehicle: saline 97 % of control | dose: 200.0 mg/kg/injection, schedule: Q04DX003 (ip), vehicle: saline 105 % of control | dose: 400.0 mg/kg/injection, schedule: Q01DX009 (ip), vehicle: saline with Tween-80 96 % of control | dose: 400.0 mg/kg/injection, schedule: Q01DX009 (ip), vehicle: saline 103 % of control | dose: 400.0 mg/kg/injection, schedule: Q04DX003 (ip), vehicle: saline 115 % of control

Clc1nnc(NC2CCCCC2)c(Cl)c1Cl
inactive: dose: 100.0 mg/kg/injection, schedule: Q01DX009 (ip), vehicle: Klucel (hydroxypropylcellulose) (HPC) 102 % of control | dose: 100.0 mg/kg/injection, schedule: Q04DX003 (ip), vehicle: Klucel (hydroxypropylcellulose) (HPC) 91 % of control | dose: 200.0 mg/kg/injection, schedule: Q01DX009 (ip), vehicle: Klucel (hydroxypropylcellulose) (HPC) 102 % of control | dose: 200.0 mg/kg/injection, schedule: Q04DX003 (ip), vehicle: Klucel (hydroxypropylcellulose) (HPC) 91 % of control | dose: 400.0 mg/kg/injection, schedule: Q01DX009 (ip), vehicle: Klucel (hydroxypropylcellulose) (HPC) 110 % of control | dose: 400.0 mg/kg/injection, schedule: Q04DX003 (ip), vehicle: Klucel (hydroxypropylcellulose) (HPC) 92 % of control

O=COc1ccc([N+](=O)[O-])cc1
inactive: dose: 25.0 mg/kg/injection, schedule: Q01DX009 (ip), vehicle: saline 98 % of control | dose: 50.0 mg/kg/injection, schedule: Q01DX009 (ip), vehicle: saline 95 % of control | [1] 98 % of control | [2] 101 % of control

c1ccc(-c2nnc(N3CCCCC3)nc2-c2ccccc2)cc1
inactive: [3] 100 % of control | [4] 88 % of control | [5] 94 % of control

CCCCCCCCCCCCCCCC[N+]1(CC)CCOCC1
inactive: dose: 5.0 mg/kg/injection, schedule: Q01DX001 (ip), vehicle: Klucel (hydroxypropylcellulose) (HPC) 97 % of control | dose: 5.0 mg/kg/injection, schedule: Q01DX001 (ip), vehicle: saline 100 % of control | dose: 5.0 mg/kg/injection, schedule: Q01DX009 (ip), vehicle: Klucel (hydroxypropylcellulose) (HPC) 98 % of control and 103 % of control | dose: 10.0 mg/kg/injection, schedule: Q01DX001 (ip), vehicle: Klucel (hydroxypropylcellulose) (HPC) 113 % of control | dose: 10.0 mg/kg/injection, schedule: Q01DX001 (ip), vehicle: saline 103 % of control | dose: 10.0 mg/kg/injection, schedule: Q01DX009 (ip), vehicle: saline 121 % of control and 88 % of control | dose: 10.0 mg/kg/injection, schedule: Q04DX002 (ip), vehicle: Klucel (hydroxypropylcellulose) (HPC) 98 % of control and 108 % of control | dose: 10.0 mg/kg/injection, schedule: Q04DX002 (ip), vehicle: saline 95 % of control | dose: 20.0 mg/kg/injection, schedule: Q01DX001 (ip), vehicle: Klucel (hydroxypropylcellulose) (HPC) 111 % of control | dose: 20.0 mg/kg/injection, schedule: Q01DX001 (ip), vehicle: saline 103 % of control | dose: 20.0 mg/kg/injection, schedule: Q04DX002 (ip), vehicle: Klucel (hydroxypropylcellulose) (HPC) 98 % of control and 101 % of control | dose: 20.0 mg/kg/injection, schedule: Q04DX002 (ip), vehicle: saline 102 % of control | dose: 40.0 mg/kg/injection, schedule: Q04DX002 (ip), vehicle: Klucel (hydroxypropylcellulose) (HPC) 90 % of control | dose: 40.0 mg/kg/injection, schedule: Q04DX002 (ip), vehicle: saline 95 % of control and 98 % of control | [6] 93 % of control | [7] 88 % of control

COC(=O)N/N=C/c1ccc(C)cc1
inactive: dose: 100.0 mg/kg/injection, schedule: Q04DX002 (ip), vehicle: Klucel (hydroxypropylcellulose) (HPC) 108 % of control | [6] 115 % of control | [7] 94 % of control

CCCN(CCC)C(=O)c1cccnc1
inactive: [8] 93 % of control | [9] 96 % of control | dose: 400.0 mg/kg/injection, schedule: Q04DX003 (ip), vehicle: saline with Tween-80 94 % of control

OCC1OC(n2ccc3c(SCc4ccccc4)ncnc32)C(O)C1O (configuration not stated)
inactive: dose: 25.0 mg/kg/injection, schedule: Q01DX001 (ip), vehicle: saline 110 % of control | [3] 107 % of control | [4] 98 % of control | [5] 116 % of control

O=[N+]([O-])c1ccc(NC2CCCCC2)c2c1no[n+]2[O-]
inactive: dose: 50.0 mg/kg/injection, schedule: Q04DX003 (ip), vehicle: saline with Tween-80 100 % of control | [8] 100 % of control | [9] 118 % of control

O=C(O)C1C2/C=C/CCCCC21 (configuration not stated)
inactive: dose: 100.0 mg/kg/injection, schedule: Q04DX002 (ip), vehicle: other 104 % of control | dose: 200.0 mg/kg/injection, schedule: Q04DX002 (ip), vehicle: other 86 % of control | dose: 400.0 mg/kg/injection, schedule: Q04DX002 (ip), vehicle: other 93 % of control

O=C(Nc1ccccc1)c1cc(N2CCOCC2)ccn1
inactive: [4] 97 % of control | [5] 95 % of control | dose: 400.0 mg/kg/injection, schedule: Q01DX001 (ip), vehicle: saline 91 % of control
